This note sets out measurements from US11612604B2, “Methods of treating cancer with PLK4 inhibitors” (LUDWIG INSTITUTE FOR CANCER RESEARCH LTD, priority 2017, dated 2023).

One may read the IC50 as the concentration at which inhibition is half-maximal.

Structures are written as SMILES.

This test addresses T1, PLK4 (Homo sapiens, UniProt O00444).
T1 sequence (O00444 1-970): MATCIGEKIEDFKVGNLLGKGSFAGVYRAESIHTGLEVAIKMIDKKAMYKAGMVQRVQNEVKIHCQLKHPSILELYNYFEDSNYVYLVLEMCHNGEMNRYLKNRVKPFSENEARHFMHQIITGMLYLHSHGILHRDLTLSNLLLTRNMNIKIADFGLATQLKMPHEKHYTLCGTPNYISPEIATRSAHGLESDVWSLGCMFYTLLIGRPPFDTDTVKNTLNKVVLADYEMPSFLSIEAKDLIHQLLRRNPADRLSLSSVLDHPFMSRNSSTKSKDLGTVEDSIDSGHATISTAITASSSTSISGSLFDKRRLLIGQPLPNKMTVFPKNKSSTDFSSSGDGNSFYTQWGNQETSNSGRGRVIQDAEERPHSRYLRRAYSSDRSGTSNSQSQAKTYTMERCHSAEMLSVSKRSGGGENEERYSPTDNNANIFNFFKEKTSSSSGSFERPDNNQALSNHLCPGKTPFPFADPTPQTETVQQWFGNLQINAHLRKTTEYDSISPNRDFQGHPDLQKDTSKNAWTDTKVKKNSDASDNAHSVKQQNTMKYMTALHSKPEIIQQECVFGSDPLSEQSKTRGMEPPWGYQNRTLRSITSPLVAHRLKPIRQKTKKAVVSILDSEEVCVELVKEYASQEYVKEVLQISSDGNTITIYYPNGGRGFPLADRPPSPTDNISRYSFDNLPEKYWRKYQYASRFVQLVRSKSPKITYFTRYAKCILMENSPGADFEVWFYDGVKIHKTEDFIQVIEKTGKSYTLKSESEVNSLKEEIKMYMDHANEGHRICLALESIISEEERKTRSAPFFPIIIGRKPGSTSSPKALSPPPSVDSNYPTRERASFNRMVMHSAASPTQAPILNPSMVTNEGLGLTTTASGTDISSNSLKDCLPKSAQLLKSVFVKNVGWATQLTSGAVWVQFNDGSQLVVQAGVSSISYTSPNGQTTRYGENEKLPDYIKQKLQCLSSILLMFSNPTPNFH
In words: Activity (IC50) of the Table 1 compounds as PLK4 inhibitors. As to conditions: Table 1, IC50 class. The format is biochemical.
The compound `Cc1cc(Nc2cc(C)[nH]n2)nc(Sc2ccc(NC(=O)C3CC3)cc2)n1` displayed an IC50 of less than 100 nM. For `COCCNc1nc(Sc2ccc(NC(=O)C3CC3)cc2)nc(Nc2cc(C)[nH]n2)c1OC`, the IC50 was less than 100 nM. Under `COc1c(Nc2cc(C)[nH]n2)nc(Sc2ccc(NC(=O)C3CC3)cc2)nc1N1CCCCC1` stands less than 100 nM.

In turn, `COc1c(Nc2cc(C)[nH]n2)nc(Sc2ccc(NC(=O)C3CC3)cc2)nc1NC(C)C` had a 50% inhibitory concentration (IC50) of less than 100 nM. Under `COc1c(Nc2cc(C)[nH]n2)nc(Sc2ccc(S(=O)(=O)Cc3cccc([N+](=O)[O-])c3C#N)cc2)nc1N1CCN(CCN(C)C)CC1` stands less than 100 nM. Under `COc1c(Nc2cc(C)[nH]n2)nc(Sc2ccc(S(=O)(=O)Cc3cccc([N+](=O)[O-])c3F)cc2)nc1N1CCC(O)CC1` stands less than 100 nM; under `COc1c(Nc2cc(C)[nH]n2)nc(Sc2ccc(S(=O)(=O)Cc3cccc([N+](=O)[O-])c3O)cc2)nc1N1CCN(CCN(C)C)CC1`, less than 100 nM; under `COc1c(Nc2cc(C)[nH]n2)nc(Sc2ccc(S(=O)(=O)Cc3cccc([N+](=O)[O-])c3)cc2)nc1N1C2CCC1COC2`, less than 100 nM. Under `COc1c(Nc2cc(C)[nH]n2)nc(Sc2ccc(S(C)(=O)=O)cc2F)nc1N1CCC(CCN(C)C)CC1` stands less than 100 nM; under `COc1c(Nc2cc(C)[nH]n2)nc(Sc2ccc(S(C)(=O)=O)cc2F)nc1N1CCN(CCN(C)C)CC1`, less than 100 nM.

As for `COc1c(Nc2cc(C)[nH]n2)nc(Sc2ccc(S(C)(=O)=O)cc2Cl)nc1N1CCN(CCN(C)C)CC1`, the IC50 is less than 100 nM. Next, `COc1c(Nc2cc(C)[nH]n2)nc(Sc2ccc(S(C)(=O)=O)cc2Cl)nc1N1CCC(CCN(C)C)CC1`: less than 100 nM. Next, `CCS(=O)(=O)c1ccc(Sc2nc(Nc3cc(C)[nH]n3)c(OC)c(N3CCOCC3)n2)c(Cl)c1`: less than 100 nM; `COc1c(Nc2cc(C)[nH]n2)nc(Sc2ccc(S(=O)(=O)Cc3cccc([N+](=O)[O-])c3F)cc2F)nc1N1CCOC[C@H]1C`: less than 100 nM. With `COc1c(Cc2cc(C)[nH]n2)nc(Sc2ccc(S(=O)(=O)Cc3cccc([N+](=O)[O-])c3)cc2F)nc1N1CCOC[C@H]1C`, the IC50 was less than 100 nM.

`CCS(=O)(=O)c1ccc(Sc2nc(Nc3cc(C)[nH]n3)c(OC)c(N3CCN(CCN(C)C)CC3)n2)c(Cl)c1` showed a half-maximal inhibitory concentration (IC50) of less than 100 nM.

`CCS(=O)(=O)c1ccc(Sc2nc(Nc3cc(C)[nH]n3)c(OC)c(N3CCN(C)CC3)n2)c(Cl)c1`: the concentration for half-maximal inhibition (IC50) was less than 100 nM. Under `CCS(=O)(=O)c1ccc(Sc2nc(Nc3cc(C)[nH]n3)c(OC)c(N3CCN(CCN(C)C)CC3)n2)c(F)c1` stands less than 100 nM; under `CCS(=O)(=O)c1ccc(Sc2nc(Nc3cc(C)[nH]n3)c(OC)c(N3CCC(CCN(C)C)CC3)n2)c(F)c1`, less than 100 nM; under `CCS(=O)(=O)c1ccc(Sc2nc(Cc3cc(C)[nH]n3)c(OC)c(N3CCOC[C@@H]3C)n2)c(Cl)c1`, less than 100 nM. Next, `COc1c(Cc2cc(C)[nH]n2)nc(Sc2ccc(S(C)(=O)=O)cc2F)nc1N1CCOC[C@@H]1C`: less than 100 nM; `COc1c(Nc2cc(C)[nH]n2)nc(Sc2ccc(S(=O)(=O)Cc3cccc(F)c3F)cc2F)nc1N1CCCCC1`: less than 100 nM. Next, `COc1c(Nc2cc(C)[nH]n2)nc(Sc2ccc(S(=O)(=O)Cc3cccc(F)c3F)cc2F)nc1N1CCOCC1`: less than 100 nM.

Compound `COc1c(Nc2cc(C)[nH]n2)nc(Sc2ccc(S(=O)(=O)Cc3cccc(F)c3F)cc2F)nc1N1CCN(CCN(C)C)CC1` displayed an IC50 of less than 100 nM. Next, `COc1c(Cc2cc(C)[nH]n2)nc(Sc2ccc(S(=O)(=O)Cc3cccc(F)c3F)cc2F)nc1N1CCOC[C@@H]1C`: less than 100 nM; `COc1c(Nc2cc(C)[nH]n2)nc(Sc2ccc(S(=O)(=O)Cc3c(F)ccc(F)c3F)cc2F)nc1N1CCN(CCN(C)C)CC1`: less than 100 nM; `COc1c(Nc2cc(C)[nH]n2)nc(Sc2ccc(S(=O)(=O)Cc3cccc([N+](=O)[O-])c3F)cc2F)nc1N1CCOC[C@@H]1C`: less than 100 nM. Turning to `COc1c(Nc2cc(C)[nH]n2)nc(Sc2ccc(S(=O)(=O)Cc3cccc([N+](=O)[O-])c3)cc2)nc1N1CCOC[C@@H]1CO`, the IC50 was less than 100 nM.

`COc1c(Nc2cc(C)[nH]n2)nc(Sc2ccc(S(=O)(=O)Cc3cccc(Cl)c3F)cc2F)nc1N1CCOCC1` returned an IC50 of less than 100 nM. Next, `COc1c(Nc2cc(C)[nH]n2)nc(Sc2ccc(S(=O)(=O)Cc3cccc(Br)c3F)cc2F)nc1N1CCOCC1`: less than 100 nM; `COc1c(Nc2cc(C)[nH]n2)nc(Sc2ccc(S(=O)(=O)Cc3c(F)c(F)cc(F)c3F)cc2F)nc1N1CCOCC1`: less than 100 nM. Under `COc1c(Nc2cc(C)[nH]n2)nc(Sc2ccc(S(=O)(=O)Cc3cccc(C(F)(F)F)c3F)cc2F)nc1N1CCOCC1` stands less than 100 nM; under `COc1c(Nc2cc(C)[nH]n2)nc(Sc2ccc(S(=O)(=O)Cc3cccc(C#N)c3F)cc2F)nc1N1CCOCC1`, less than 100 nM. Next, `COc1c(Nc2cc(C)[nH]n2)nc(Sc2ccc(S(=O)(=O)Cc3cccc(N)c3F)cc2F)nc1N1CCOCC1`: less than 100 nM. Take `COc1c(Nc2cc(C)[nH]n2)nc(Sc2ccc(S(=O)(=O)C(F)c3cccc([N+](=O)[O-])c3F)cc2F)nc1N1CCOCC1` (stereo not shown): the IC50 was less than 100 nM. As to `COC(=O)c1cccc(CS(=O)(=O)c2ccc(Sc3nc(Nc4cc(C)[nH]n4)c(OC)c(N4CCOCC4)n3)c(F)c2)c1F`, the half-maximal inhibitory concentration (IC50) is less than 100 nM. Under `COc1c(Nc2cc(C)[nH]n2)nc(Sc2ccc(S(=O)(=O)Cc3cccc(C(=O)N(C)C)c3F)cc2F)nc1N1CCOCC1` stands less than 100 nM; under `COc1c(Nc2cc(C)[nH]n2)nc(Sc2ccc(S(=O)(=O)Cc3cccc(C(N)=O)c3F)cc2F)nc1N1CCOCC1`, less than 100 nM; under `COc1c(Nc2cc(C)[nH]n2)nc(Sc2ccc(S(=O)(=O)Cc3cccc([N+](=O)[O-])c3F)cc2F)nc1N1CCOC[C@@H]1CO`, less than 100 nM. Regarding `COc1c(Nc2cc(C)[nH]n2)nc(Sc2ccc(S(=O)(=O)Cc3cccc(Br)c3F)cc2F)nc1N1CCCCC1`, the IC50 was less than 100 nM. Under `COc1c(Nc2cc(C)[nH]n2)nc(Sc2ccc(S(=O)(=O)Cc3cccc(I)c3F)cc2F)nc1N1CCOCC1` stands less than 100 nM; under `COc1c(Nc2cc(C)[nH]n2)nc(Sc2ccc(S(=O)(=O)c3cccc([N+](=O)[O-])c3)cc2F)nc1N1CCOCC1`, less than 100 nM. As for `COc1c(Nc2cc(C)[nH]n2)nc(Sc2ccc(S(=O)(=O)c3cccc([N+](=O)[O-])c3F)cc2F)nc1N1CCOCC1`, the half-inhibitory concentration (IC50) is less than 100 nM.

For the compound `COc1c(Nc2cc(C)[nH]n2)nc(Sc2ccc(S(=O)(=O)C(F)c3cccc([N+](=O)[O-])c3F)cc2F)nc1N1CCN(CCN(C)C)CC1` (stereo not shown), the 50% inhibitory concentration (IC50) is less than 100 nM. Next, `COc1c(Nc2cc(C)[nH]n2)nc(Sc2ccc(C#Cc3cccc([N+](=O)[O-])c3F)cc2F)nc1N1CCOCC1`: less than 100 nM; `COc1c(Nc2cc(C)[nH]n2)nc(Sc2ccc(/C=C/c3cccc([N+](=O)[O-])c3F)cc2F)nc1N1CCOCC1`: less than 100 nM. As to `COc1c(Nc2cc(C)[nH]n2)nc(Sc2ccc(CCc3cccc([N+](=O)[O-])c3F)cc2F)nc1N1CCOCC1`, the IC50 was less than 100 nM. Next, `COc1c(Nc2cc(C)[nH]n2)nc(Sc2ccc(-c3cc4cccc([N+](=O)[O-])c4o3)cc2F)nc1N1CCOCC1`: 100 to 1000 nM; `COc1c(Nc2cc(C)[nH]n2)nc(Sc2ccc(C(=O)Cc3cccc([N+](=O)[O-])c3F)cc2F)nc1N1CCOCC1`: less than 100 nM. Next, `COc1c(Nc2cc(C)[nH]n2)nc(Sc2ccc(C(=O)Oc3cccc([N+](=O)[O-])c3F)cc2F)nc1N1CCOCC1`: less than 100 nM; `COc1c(Nc2cc(C)[nH]n2)nc(Sc2ccc(S(=O)(=O)C(C)(C)c3cccc([N+](=O)[O-])c3F)cc2F)nc1N1CCOCC1`: less than 100 nM. Under `COc1c(Nc2cc(C)[nH]n2)nc(Sc2ccc(NC(=O)c3cccc([N+](=O)[O-])c3)cc2F)nc1N1CCOCC1` stands 100 to 1000 nM.

With `COc1c(Nc2cc(C)[nH]n2)nc(Sc2ccc(S(=O)(=O)Cc3cccc(C#N)c3F)cc2F)nc1N1CCN(CCN(C)C)CC1`, the 50% inhibitory concentration (IC50) was less than 100 nM.

With `COc1c(Nc2cc(C)[nH]n2)nc(Sc2ccc(S(=O)(=O)C(F)c3cccc(C#N)c3F)cc2F)nc1N1CCOCC1` (stereo not shown), the IC50 is less than 100 nM. Next, `COc1c(Nc2cc(C)[nH]n2)nc(Sc2ccc(S(=O)(=O)Nc3cccc([N+](=O)[O-])c3)cc2F)nc1N1CCOCC1`: less than 100 nM. As for `COc1c(Nc2cc(C)[nH]n2)nc(Sc2ccc(S(=O)(=O)Cc3cccc([N+](=O)[O-])c3F)cc2F)nc1N1CCCC[C@@H]1CO`, the concentration for half-maximal inhibition (IC50) was less than 100 nM.

As to `COc1c(Nc2cc(C)[nH]n2)nc(Sc2ccc(S(=O)(=O)Cc3cccc([N+](=O)[O-])c3F)cc2F)nc1N1CCC(CCN(C)C)CC1`, the IC50 is less than 100 nM. Under `COc1c(Nc2cc(C)[nH]n2)nc(Sc2ccc(NC(=O)Cc3cccc([N+](=O)[O-])c3F)cc2F)nc1N1CCOCC1` stands less than 100 nM.
